The Kinase Knowledgebase extract (Sharma et al. 2016)

Legend:
EGFR = EGFR (UniProt P00533)
EGFR (Balb/c mice) [1] = target: EGFR (Balb/c mice) (UniProt P00533); conditions: balb/c3t3
EGFR (Balb/c mice) [2] = target: EGFR (Balb/c mice) (UniProt P00533); conditions: balb/mk cells
EGFR (human) = EGFR (human) (UniProt P00533); conditions: a431
Chain of EGFR (human) (P00533 whole entry, looked up): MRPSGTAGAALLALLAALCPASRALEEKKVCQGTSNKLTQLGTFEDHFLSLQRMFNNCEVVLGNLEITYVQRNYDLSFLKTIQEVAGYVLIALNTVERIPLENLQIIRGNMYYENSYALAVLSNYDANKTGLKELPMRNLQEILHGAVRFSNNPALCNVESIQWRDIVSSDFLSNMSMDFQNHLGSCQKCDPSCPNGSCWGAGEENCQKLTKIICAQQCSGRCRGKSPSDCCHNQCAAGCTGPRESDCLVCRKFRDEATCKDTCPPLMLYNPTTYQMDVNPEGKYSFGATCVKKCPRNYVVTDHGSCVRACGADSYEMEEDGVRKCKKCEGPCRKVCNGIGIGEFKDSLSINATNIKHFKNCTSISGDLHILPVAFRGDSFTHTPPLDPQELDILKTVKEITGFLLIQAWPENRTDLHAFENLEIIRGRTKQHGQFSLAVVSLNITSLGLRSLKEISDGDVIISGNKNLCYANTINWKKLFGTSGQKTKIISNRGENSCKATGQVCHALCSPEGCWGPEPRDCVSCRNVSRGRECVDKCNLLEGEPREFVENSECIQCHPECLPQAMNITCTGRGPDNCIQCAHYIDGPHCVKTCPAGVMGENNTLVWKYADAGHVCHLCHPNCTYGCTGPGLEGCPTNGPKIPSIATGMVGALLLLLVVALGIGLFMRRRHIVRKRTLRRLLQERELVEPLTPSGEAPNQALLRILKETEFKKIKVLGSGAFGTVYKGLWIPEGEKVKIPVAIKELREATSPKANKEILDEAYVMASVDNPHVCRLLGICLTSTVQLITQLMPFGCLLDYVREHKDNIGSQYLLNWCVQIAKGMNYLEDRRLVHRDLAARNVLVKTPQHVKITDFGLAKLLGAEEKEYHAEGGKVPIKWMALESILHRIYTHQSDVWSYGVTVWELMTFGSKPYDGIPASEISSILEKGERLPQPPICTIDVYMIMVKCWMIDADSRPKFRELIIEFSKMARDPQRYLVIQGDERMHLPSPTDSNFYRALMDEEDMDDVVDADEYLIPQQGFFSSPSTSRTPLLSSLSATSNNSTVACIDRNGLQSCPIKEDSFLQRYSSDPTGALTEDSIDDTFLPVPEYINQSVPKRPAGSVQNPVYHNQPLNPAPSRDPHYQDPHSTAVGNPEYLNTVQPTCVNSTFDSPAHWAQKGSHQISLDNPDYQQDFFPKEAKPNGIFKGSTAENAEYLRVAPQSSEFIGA

Chain of EGFR (P00533 whole entry, looked up): as above

Structure (SMILES): CCS(=O)(=O)Nc1ccc(-c2cc3c(Nc4cccc(Cl)c4)ncnc3[nH]2)cc1
- IC50 (EGFR): 0.5 to 1000 nM
- IC50 (EGFR (Balb/c mice) [1]): 1 to 100 nM
- IC50 (EGFR (Balb/c mice) [2]): 100 to 1000 nM

Structure (SMILES): C[C@@H](Nc1ncnc2[nH]c(-c3ccc(N=CN(C)C)cc3)cc12)c1ccccc1
- IC50 (EGFR): 0.5 to 1000 nM
- IC50 (EGFR (Balb/c mice) [1]): 1 to 100 nM
- IC50 (EGFR (Balb/c mice) [2]): 100 to 1000 nM

Structure (SMILES): ON=Cc1cc2c(Nc3cccc(Cl)c3)ncnc2[nH]1
- IC50 (EGFR): 0.5 to 1000 nM
- IC50 (EGFR (Balb/c mice) [1]): 1 to 100 nM
- IC50 (EGFR (Balb/c mice) [2]): 100 to 1000 nM

Structure (SMILES): COc1cc(-c2cc3c(Nc4cccc(C)c4)ncnc3[nH]2)ccc1OCc1ccccc1
- IC50 (EGFR): 0.5 to 1000 nM
- IC50 (EGFR (Balb/c mice) [1]): 1 to 100 nM
- IC50 (EGFR (Balb/c mice) [2]): 100 to 1000 nM

Structure (SMILES): O=C(Nc1ccc(-c2cc3c(Nc4cccc(Cl)c4)ncnc3[nH]2)cc1)c1ccco1
- IC50 (EGFR): 0.5 to 1000 nM
- IC50 (EGFR (Balb/c mice) [1]): 1 to 100 nM
- IC50 (EGFR (Balb/c mice) [2]): 100 to 1000 nM

Structure (SMILES): O=C(Nc1ccccc1)Nc1cccc(-c2cc3c(Nc4cccc(Cl)c4)ncnc3[nH]2)c1
- IC50 (EGFR): 0.5 to 1000 nM
- IC50 (EGFR (Balb/c mice) [1]): 1 to 100 nM
- IC50 (EGFR (Balb/c mice) [2]): 100 to 1000 nM

Structure (SMILES): CN1CCN(C(=O)c2ccc(-c3cc4c(Nc5cccc(Cl)c5)ncnc4[nH]3)cc2)CC1
- IC50 (EGFR): 0.5 to 1000 nM
- IC50 (EGFR (Balb/c mice) [1]): 1 to 100 nM
- IC50 (EGFR (Balb/c mice) [2]): 100 to 1000 nM

Structure (SMILES): COc1cc(-c2cc3c(Nc4cccc(Cl)c4)ncnc3[nH]2)ccc1O
- IC50 (EGFR): 0.5 to 1000 nM
- IC50 (EGFR (Balb/c mice) [1]): 1 to 100 nM
- IC50 (EGFR (Balb/c mice) [2]): 100 to 1000 nM

Structure (SMILES): COC(=O)Nc1ccc(-c2cc3c(Nc4cccc(Cl)c4)ncnc3[nH]2)cc1
- IC50 (EGFR): 0.5 to 1000 nM
- IC50 (EGFR (Balb/c mice) [1]): 1 to 100 nM
- IC50 (EGFR (Balb/c mice) [2]): 100 to 1000 nM

Structure (SMILES): CCN(C=Nc1cccc(-c2cc3c(Nc4cccc(Cl)c4)ncnc3[nH]2)c1)CC
- IC50 (EGFR): 0.5 to 1000 nM
- IC50 (EGFR (Balb/c mice) [1]): 1 to 100 nM
- IC50 (EGFR (Balb/c mice) [2]): 100 to 1000 nM

Structure (SMILES): CC(C)OC(=O)Nc1ccc(-c2cc3c(Nc4cccc(Cl)c4)ncnc3[nH]2)cc1
- IC50 (EGFR): 0.5 to 1000 nM
- IC50 (EGFR (Balb/c mice) [1]): 1 to 100 nM
- IC50 (EGFR (Balb/c mice) [2]): 100 to 1000 nM

Structure (SMILES): CNC(=S)Nc1ccc(-c2cc3c(N[C@H](C)c4ccccc4)ncnc3[nH]2)cc1
- IC50 (EGFR): 0.5 to 1000 nM
- IC50 (EGFR (Balb/c mice) [1]): 1 to 100 nM
- IC50 (EGFR (Balb/c mice) [2]): 100 to 1000 nM

Structure (SMILES): CCS(=O)(=O)Nc1cccc(-c2cc3c(N[C@H](C)c4ccccc4)ncnc3[nH]2)c1
- IC50 (EGFR): 0.5 to 1000 nM
- IC50 (EGFR (Balb/c mice) [1]): 1 to 100 nM
- IC50 (EGFR (Balb/c mice) [2]): 100 to 1000 nM

Structure (SMILES): COc1ccc(-c2csc(-c3cc4c(Nc5cccc(Cl)c5)ncnc4[nH]3)n2)cc1
- IC50 (EGFR): 0.5 to 1000 nM
- IC50 (EGFR (Balb/c mice) [1]): 1 to 100 nM
- IC50 (EGFR (Balb/c mice) [2]): 100 to 1000 nM

Structure (SMILES): CN1CCN(C(=O)c2cc3c(Nc4cccc(Cl)c4)ncnc3[nH]2)CC1
- IC50 (EGFR): 0.5 to 1000 nM
- IC50 (EGFR (Balb/c mice) [1]): 1 to 100 nM
- IC50 (EGFR (Balb/c mice) [2]): 100 to 1000 nM
- IC100 (EGFR (human)): Between 0.001 to 1.000 uM

Structure (SMILES): Clc1cccc(Nc2ncnc3[nH]c(-c4ccc(NCc5ccccc5)cc4)cc23)c1
- IC50 (EGFR): 0.5 to 1000 nM
- IC50 (EGFR (Balb/c mice) [1]): 1 to 100 nM
- IC50 (EGFR (Balb/c mice) [2]): 100 to 1000 nM

Structure (SMILES): CCNC(=O)Nc1ccc(-c2cc3c(N[C@H](C)c4ccccc4)ncnc3[nH]2)cc1
- IC50 (EGFR): 0.5 to 1000 nM
- IC50 (EGFR (Balb/c mice) [1]): 1 to 100 nM
- IC50 (EGFR (Balb/c mice) [2]): 100 to 1000 nM

Structure (SMILES): Clc1cccc(Nc2ncnc3[nH]c(-c4nnn[nH]4)cc23)c1
- IC50 (EGFR): 0.5 to 1000 nM
- IC50 (EGFR (Balb/c mice) [1]): 1 to 100 nM
- IC50 (EGFR (Balb/c mice) [2]): 100 to 1000 nM

Structure (SMILES): O=C(c1cc2c(Nc3cccc(Cl)c3)ncnc2[nH]1)N1CCOCC1
- IC50 (EGFR): 0.5 to 1000 nM
- IC50 (EGFR (Balb/c mice) [1]): 1 to 100 nM
- IC50 (EGFR (Balb/c mice) [2]): 100 to 1000 nM

Structure (SMILES): Cn1nnc(-c2cc3c(Nc4cccc(Cl)c4)ncnc3[nH]2)n1.Cn1nnnc1-c1cc2c(Nc3cccc(Cl)c3)ncnc2[nH]1
- IC50 (EGFR): 0.5 to 1000 nM
- IC50 (EGFR (Balb/c mice) [1]): 1 to 100 nM
- IC50 (EGFR (Balb/c mice) [2]): 100 to 1000 nM

Structure (SMILES): O=C(c1ccc(-c2cc3c(Nc4cccc(Cl)c4)ncnc3[nH]2)cc1)N1CCOCC1
- IC50 (EGFR): 0.5 to 1000 nM
- IC50 (EGFR (Balb/c mice) [1]): 1 to 100 nM
- IC50 (EGFR (Balb/c mice) [2]): 100 to 1000 nM

Structure (SMILES): Clc1cccc(Nc2ncnc3[nH]c(-c4ccc(N=CN5CCCCC5)cc4)cc23)c1
- IC50 (EGFR): 0.5 to 1000 nM
- IC50 (EGFR (Balb/c mice) [1]): 1 to 100 nM
- IC50 (EGFR (Balb/c mice) [2]): 100 to 1000 nM

Structure (SMILES): Oc1ccc(CNCc2cc3c(Nc4cccc(Cl)c4)ncnc3[nH]2)cc1
- IC50 (EGFR): 0.5 to 1000 nM
- IC50 (EGFR (Balb/c mice) [1]): 1 to 100 nM
- IC50 (EGFR (Balb/c mice) [2]): 100 to 1000 nM

Structure (SMILES): CON=Cc1cc2c(Nc3cccc(Cl)c3)ncnc2[nH]1
- IC50 (EGFR): 0.5 to 1000 nM
- IC50 (EGFR (Balb/c mice) [1]): 1 to 100 nM
- IC50 (EGFR (Balb/c mice) [2]): 100 to 1000 nM

Structure (SMILES): O=S(=O)(Nc1ccc(-c2cc3c(Nc4cccc(Cl)c4)ncnc3[nH]2)cc1)c1ccccc1
- IC50 (EGFR): 0.5 to 1000 nM
- IC50 (EGFR (Balb/c mice) [1]): 1 to 100 nM
- IC50 (EGFR (Balb/c mice) [2]): 100 to 1000 nM

Structure (SMILES): Cc1nc(-c2cc3c(Nc4cccc(Cl)c4)ncnc3[nH]2)sc1C
- IC50 (EGFR): 0.5 to 1000 nM
- IC50 (EGFR (Balb/c mice) [1]): 1 to 100 nM
- IC50 (EGFR (Balb/c mice) [2]): 100 to 1000 nM

Structure (SMILES): CN1CCN(Cc2cc3c(Nc4cccc(Cl)c4)ncnc3[nH]2)CC1
- IC50 (EGFR): 0.5 to 1000 nM
- IC50 (EGFR (Balb/c mice) [1]): 1 to 100 nM
- IC50 (EGFR (Balb/c mice) [2]): 100 to 1000 nM

Structure (SMILES): COc1cc(-c2cc3c(Nc4cccc(C)c4)ncnc3[nH]2)ccc1O
- IC50 (EGFR): 0.5 to 1000 nM
- IC50 (EGFR (Balb/c mice) [1]): 1 to 100 nM
- IC50 (EGFR (Balb/c mice) [2]): 100 to 1000 nM

Structure (SMILES): CCOC(=O)Nc1ccc(-c2cc3c(Nc4cccc(Cl)c4)ncnc3[nH]2)cc1
- IC50 (EGFR): 0.5 to 1000 nM
- IC50 (EGFR (Balb/c mice) [1]): 1 to 100 nM
- IC50 (EGFR (Balb/c mice) [2]): 100 to 1000 nM

Structure (SMILES): CN(C)C=Nc1ccc(-c2cc3c(Nc4cccc(Cl)c4)ncnc3[nH]2)cc1
- IC50 (EGFR): 0.5 to 1000 nM
- IC50 (EGFR (Balb/c mice) [1]): 1 to 100 nM
- IC50 (EGFR (Balb/c mice) [2]): 100 to 1000 nM

Structure (SMILES): Clc1cccc(Nc2ncnc3[nH]c(CN4CCOCC4)cc23)c1
- IC50 (EGFR): 0.5 to 1000 nM
- IC50 (EGFR (Balb/c mice) [1]): 1 to 100 nM
- IC50 (EGFR (Balb/c mice) [2]): 100 to 1000 nM

Structure (SMILES): OCc1ccc(-c2cc3c(Nc4cccc(Cl)c4)ncnc3[nH]2)cc1
- IC50 (EGFR): 0.5 to 1000 nM
- IC50 (EGFR (Balb/c mice) [1]): 1 to 100 nM
- IC50 (EGFR (Balb/c mice) [2]): 100 to 1000 nM

Structure (SMILES): CC(C)S(=O)(=O)Nc1cccc(-c2cc3c(Nc4cccc(Cl)c4)ncnc3[nH]2)c1
- IC50 (EGFR): 0.5 to 1000 nM
- IC50 (EGFR (Balb/c mice) [1]): 1 to 100 nM
- IC50 (EGFR (Balb/c mice) [2]): 100 to 1000 nM
